*1 amine or outer side, *2 acyl side, *3 side chain or, on linkers, in order; H or OH if unused. Bridges are numbered along the chain shown (N, C = ends). [ ]: non-standard residue; d: D form. ξ: configuration not given here. DAPTZAC3 = (S)-3-(4-(3-acrylamidopropyl)-1H-1,2,3-triazol-1-yl)-2-aminopropanoic acid, C=CC(=O)NCCCc1cn(C[C@H](N[*:1])C(=O)[*:2])nn1; DAPTZAC2 = (S)-3-(4-(2-acrylamidoethyl)-1H-1,2,3-triazol-1-yl)-2-aminopropanoic acid, C=CC(=O)NCCc1cn(C[C@H](N[*:1])C(=O)[*:2])nn1; Trp(7-aza) = N[C@@H](Cc1c[nH]c2ncccc12)C(=O)O; NMePhe(4-F) = CN[C@@H](Cc1ccc(F)cc1)C(=O)O; Alexa Fluor 594 = N-terminal label (ALF); mXylylene = c1cc(C[*:1])cc(C[*:2])c1; Phg = N[C@H](C(=O)O)c1ccccc1; Tle = CC(C)(C)[C@H](N)C(=O)O; ξPhg = NC(C(=O)O)c1ccccc1; NMeA = CN[C@@H](C)C(=O)O; Nva = CCC[C@H](N)C(=O)O; Sar = CNCC(=O)O
Experiments:
[1] = test system: human lung cancer cell line H358; assay: Cell permeability by monitoring intracellular fluorescence; type: cell-based; settings: H358 cells treated 3.5 hours, serum-free media; compared to negative control and scrambled R4007
Experimental: Cell permeability of R4007 (a TAMRA-labeled R4000 derivative) was determined in the human lung cancer cell line H358 (ATCC, Manassas, Va.). Cells were maintained in RPMI-1640 with 10% FBS at 37° C., 95% relative humidity, 5% CO2. For experiments, cells were seeded at 50,000 cells/well in growth media on 96-well glass bottom plates (Greiner, Monroe, N.C.) and incubated 24 hours prior to treatment. Media was removed from cells and replaced with indicated treatment solutions prepared in serum-free media (0.1% DMSO final). Cells were treated for 3.5 hours, then washed 3 times with PBS, fixed with 4% formaldehyde in PBS for 5 minutes at room temperature, and washed 3 times with PBS. Cell nuclei were stained with 1 μg/ml DAPI nuclear stain for 5 minutes at room temperature. Images were captured using a Zeiss Axio Observer inverted microscope with 63× oil objective with excitation 365 nm/emission 445 for DAPI and excitation 565 nm/emission 620 for TAMRA. TAMRA signal was much stronger in cells treated with R4007 as compared to negative control and cells treated with scrambled R4007.

[2] = test system: GMPPNP-loaded H-Ras or GTP-loaded K-Ras; assay: Fluorescence polarization competition assay with TAMRA-labeled probe R4007; type: binding, human; settings: 120 nM Ras, 30 nM probe R4007, 60 minutes at room temperature; read-out: Probe displacement (nM IC50)
Outline: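 120 nM GMPPNP-loaded H-Ras or GTP-loaded K-Ras was preincubated with 30 nM TAMRA-labeled R4007 probe for 20 min at room temperature in Tris pH 7.5 buffer with MgCl2, EDTA and Triton X-100. Serially diluted competitor was then added for 60 min. Polarization was read at 535/595 nm, with Ki from a one-site Ki fit and IC50 from probe displacement.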

IC50 [2] [nM]	Compound	intracellular TAMRA signal [1]
	CCC[C@H](NC(C)=O)C(=O)N[C@H]1CSCc2cccc(c2)CSC[C@@H](C(=O)N[C@@H](Cc2cn(CCCNC(=O)c3ccc(-c4c5ccc(=[N+](C)C)cc-5oc5cc(N(C)C)ccc45)c(C(=O)[O-])c3)nn2)C(N)=O)NC(=O)CN(C)C(=O)[C@H](Cc2ccc(F)cc2)N(C)C(=O)[C@H](Cc2ccc(O)cc2)NC(=O)[C@H](Cc2c[nH]c3ncccc23)NC(=O)[C@H](c2ccccc2)NC(=O)[C@H](C)N(C)C(=O)[C@H](Cc2cnc[nH]2)NC(=O)[C@H](CCCCN)NC(=O)[C@H](C(C)(C)C)NC(=O)[C@H](Cc2ccc(O)cc2)NC1=O [Compound R4007]	much stronger
12200	ACE-NVA-SER-TYR-TBG-ALA-DAPTZAC2-NMA-RPHG-7AW-TYR-MFF-SAR-SER-NH2 (Ac-[Nva]SY[Tle]A[DAPTZAC2][NMeA][ξPhg][Trp(7-aza)]Y[NMePhe(4-F)][Sar]S-NH2) [Compound R4151, linear]	
6000	ACE-NVA-SER-TYR-TBG-ALA-DAPTZAC3-NMA-RPHG-7AW-TYR-MFF-SAR-SER-NH2 (Ac-[Nva]SY[Tle]A[DAPTZAC3][NMeA][ξPhg][Trp(7-aza)]Y[NMePhe(4-F)][Sar]S-NH2) [Compound R4148, linear]	
37400	ALF-NVA-CYS*-TYR-NVA-PHG-MFF-THR-PRO-7AW-CYS*-7AW-GLU-GLU-NH2 ({Alexa Fluor 594}-[Nva]CY[Nva][Phg][NMePhe(4-F)]TP[Trp(7-aza)]C[Trp(7-aza)]EE-NH2; linker 2-10 via mXylylene) [Compound R4154, cyclized by a m-xylylene thioether bridge]	
